{"source": "patent US6288077A", "about": "“2,3-methano-amino acid compounds” (Adir et Compagnie, priority 1999, dated 2001)", "key": {"human thrombin": {"molecular_target": "T1, human thrombin (Homo sapiens, UniProt P00734)", "T1 construct": "purchased Sigma", "assay": "Inhibition of human thrombin (fibrin formation from purified human fibrinogen)", "assay_type": "biochemical", "details": "human thrombin 0.7 nM, human fibrinogen 4 mM, pH 7.4, 20° C., 10 min preincubation", "method": "Inhibition of Thrombin and of Fibrinolysis Serine Proteases […] The fibrin formed by the thrombin or by the paranitroanilide released by the action of the serine protease is measured spectrophotometrically at 405 nm after from 15 to 30 minutes' reaction at 20° C."}, "human plasma [1]": {"system": "human plasma", "assay": "Activated cephalin time (ACT) in human plasma, anti-coagulant activity", "assay_type": "biochemical", "details": "human plasma deficient in platelets, 2 min incubation at 37° C., PTT Automate Cephalin", "method": "(§1) Anti-coagulant Activity, Measurement of Thrombin Time and Activated […] Man In order to evaluate the anti-coagulant activity of the compounds of the invention, the thrombin time (TT) and the activated cephalin time (ACT) were determined in human plasma samples. An ST4 coagulometer (Diagnostica Stago, France) was used. A lyophilised plasma, deficient in platelets (Stago), is taken up in distilled water. The TT is obtained using the reagent Prest Thrombin and the ACT using the reagent PTT Automate […]. […] The activity of an antagonist is evaluated by its capacity to prolong the TT and the ACT relative to the control. The effect of the inhibitors is expressed by the concentration in μM that doubles the coagulation time (Ctt2)."}, "dog plasma [2]": {"system": "dog plasma", "assay": "Anti-coagulant activity after administration per os to the dog, thrombin time (TT)", "assay_type": "in vivo", "details": "oral, 10 mg/kg", "method": "(§2) Anti-coagulant Activity After Administration Per os to the Dog\n(§3) Male or female dogs weighing 11-28 kg are treated by the oral route with the products of the invention (5 or 10 mg/kg). The coagulation times (TT, ACT) are determined in dog plasma samples 10 min. before and 30 min., 1 hour, 2 hours, 4 hours and 6 hours after administration of the products. The measurements of the coagulation times are carried out as described in Example 81.\n(§4) Under the conditions of our experiments, the TT is of the order of 19 seconds and the ACT of the order of 18 seconds.\n(§5) The Table 4 summarizes the results obtained."}, "human plasma [3]": {"system": "human plasma", "assay": "Thrombin time (TT) in human plasma, anti-coagulant activity", "assay_type": "biochemical", "details": "human plasma deficient in platelets, 2 min incubation at 37° C., Prest Thrombin", "method": "as §1"}, "dog plasma [4]": {"system": "dog plasma", "assay": "Anti-coagulant activity after administration per os to the dog, activated cephalin time (ACT)", "assay_type": "in vivo", "details": "oral, 10 mg/kg", "method": "as §2, §3, §4, §5"}}, "note": "pIC50: −log10 of the molar value."}
{"smiles": "Cc1nc(N)ccc1CNC(=O)[C@]12C[C@H]1CCCN2C(=O)[C@H](N)CC1CCCCC1.Cl.Cl", "note": "[Example 28, 1-[(2R)-3-Cyclohexylalanyl]-N-[(6-amino-2-methyl-3-pyridyl)methyl]-(2S,3R)-2,3-methano-homoprolinamide dihydrochloride]", "values": [{"measurement": "pIC50", "setting": "human thrombin", "value": 7.59}, {"measurement": "ACT Ctt2 (concentration that doubles the coagulation time)", "setting": "human plasma [1]", "value": 2.30, "unit": "µM"}, {"measurement": "TT increase (maximal; number of times by which the initial time is increased)", "setting": "dog plasma [2]", "value": 6.2, "unit": "times"}, {"measurement": "TT Ctt2 (concentration that doubles the coagulation time)", "setting": "human plasma [3]", "value": 0.31, "unit": "µM"}, {"measurement": "ACT increase (maximal; number of times by which the initial time is increased)", "setting": "dog plasma [4]", "value": 1.8, "unit": "times"}]}
